Earlier results in patent US9662322B2 (TEVA PHARMACEUTICAL INDUSTRIES, LTD., priority 2014, dated 2017).

Conditions: cited from earlier work

## CCN(C(=O)c1c(O)c2c(Cl)cccc2n(C)c1=O)c1ccccc1 [Laquinimod sodium]
  Oral bioavailability: high
